Measured values: patent US11738087B2, “Lymph directing prodrugs” (Monash University, priority 2015, dated 2023)

Columns and labels:
[1] = Lymphatic transport studies in rats (mesenteric lymph duct cannulated, intraduodenal infusion); details: for Transport of total TST derivatives in lymph (% of dose): intraduodenal infusion, anaesthetised, mesenteric lymph-duct cannulated female SD rats, mean ± SEM (n≥3) or mean ± range (n=2); for Fold increase (compared with control group dosed with TU): lymphatic transport, testosterone series, female SD rats
[2] = Pharmacokinetic (PK) studies in rats after oral gavage (plasma free parent drug); details: for AUC0-24 h fold increase compared with TU group: plasma testosterone exposure; for Tmax / AUC0-24 h: plasma testosterone, mean ± SEM; for AUC0-24 h: normalized to 2 mg/kg equivalent testosterone dose; for Cmax: read-out: Cmax (nmol/L), plasma testosterone, conscious carotid artery cannulated SD female rats, normalized to 2 mg/kg equivalent testosterone dose, mean ± SEM
[3] = tested on: porcine pancreatic lipase; assay: In vitro hydrolysis of compounds by porcine pancreatic lipase (stability of monoglyceride forms); assay type: in vitro ADME; details: simulated intestinal micellar solution, pH 6.5, 37° C., up to 180 minutes; FIG. 9
Method: In vitro hydrolysis of testosterone prodrugs was performed via incubation with porcine pancreatic lipase. Briefly, pancreatic lipase solution was prepared prior to the hydrolysis experiment by dispersion of 1 g porcine pancreatin in 5 ml of lipolysis buffer. The suspension was mixed well and centrifuged at 3500 rpm for 15 minutes at 5° C. to provide a supernatant. An amount of 1000 ml of lipolysis buffer was prepared with 0.474 g of tris-maleate (2 mM), 0.206 g of CaCl2·H2O (1.4 mM) and 8.775 g of NaCl (150 mM) adjusted with NaOH to pH 6.5. To assess the potential for prodrug hydrolysis in the intestine, 20 μl of prodrug solution (1 mg/ml dissolved in acetonitrile), 900 μl of simulated intestinal micellar solution [prepared with 0.783 g of NaTDC (3 mM) and 0.291 g of phosphatidyl choline (0.75 mM) in 500 ml lipolysis buffer] and 100 μl of enzyme solution were incubated at 37° C. […] The supernatant was analysed by HPLC-MS for residual compound concentrations, and the potential products of compound hydrolysis were analysed.
On incubation with digestive enzymes, the monoglycerides forms of the prodrugs are formed very rapidly. The stability in simulated intestinal conditions is therefore better assessed by the stability of the monoglycerides form that is generated by the initial digestion process. […]

lipoprotein lipase (LPL) = assay: In vitro release of MPA from prodrugs in rat lymph supplemented with lipoprotein lipase; assay type: in vitro ADME; details: LPL 200 unit/ml, 37° C., n=1; FIG. 10
Method: In order to probe the release of free MPA from TG prodrugs in the lymphatics (the active site of MPA is in lymphocytes that are enriched in the lymphatic system), MPA prodrugs were incubated with rat lymph supplemented with lipoprotein lipase (LPL, 200 unit/ml). LPL is a key enzyme required for the hydrolysis of lipoprotein associated TG in normal physiological conditions and is therefore expected to be a key contributor to lipolysis of the re-esterified Drug-TG construct in plasma, largely via liberation of FAs in the sn-1 and the sn-3 position of the TG-mimetic, prior to drug release from the 2′ positon via esterase hydrolysis. LPL is tethered to lymphocytes or lymphatic/vascular endothelial cells under physiological conditions. In the current in vitro studies, rat lymph was therefore supplemented with LPL to better reflect the in vivo situation. To start hydrolysis, 10 μl of LPL solution (10,000 unit/ml) was added to a mixture of 10 μl of prodrug solution (1 mg/ml dissolved in acetonitrile) and 500 μl of blank Sprague Dawley rat lymph. The solution was incubated at 37° C. Samples (20 μl) of the incubation solution were taken at 0, 5, 10, 15, 30, 60, 90, 120 and 180 minutes post incubation and added to 980 μl of 9:1 (v/v) ACN-water to stop lipolysis. […] The supernatant was analysed by HPLC-MS/MS for MPA concentrations.

[4] = 'is thought to be'; cited from earlier work

1-(1,3-Bis(palmitoyloxy)propan-2-yl) 4-((((8R,9S,10R,13S,14S,17S)-10,13-dimethyl-3-oxo-2,3,6,7,8,9,10,11,12,13,14,15,16,17-tetradecahydro-1H-cyclopenta[a]phen-anthren-17-yl)oxy)methyl) 2/3-methylsuccinate [Compounds 13/14]
Transport of total TST derivatives in lymph (% of dose) [1]: 8.0 ± 2.5 % of dose | Fold increase (compared with control group dosed with TU) [1]: 4.2 | Systemic exposure of testosterone, fold higher than Compound 12 ([2]; SD female rats): ~13 fold | AUC0-24 h fold increase compared with TU group ([2]; SD female rats): 94.6 | Tmax ([2]; SD female rats): 1.4 ± 0.1 h | AUC0-24 h ([2]; SD female rats): 0.6453 ± 0.1449 µM·h | Cmax [2]: 568 ± 155 nmol/L | Stability of the monoglyceride form during in vitro incubation with porcine pancreatic lipase [3]: much more stable

CCCCCCCCCCCCCCCC(=O)OCC(COC(=O)CCCCCCCCCCCCCCC)OC(=O)CC(C)CC(=O)OCOC(=O)CC/C(C)=C/Cc1c(O)c2c(c(C)c1OC)COC2=O (stereo not shown) [Compound 10, (E)-1-(1,3-Bis(palmitoyloxy)propan-2-yl) 5-(((6-(4-hydroxy-6-methoxy-7-methyl-3-oxo-1,3-dihydroisobenzofuran-5-yl)-4-methylhex-4-enoyl)oxy)methyl) 3-methyl-pentanedioate]
Release of MPA on incubation with LPL supplemented rat lymph (lipoprotein lipase (LPL)): very rapid

CCCCCCCCCCCCCCCC(=O)OCC(COC(=O)CCCCCCCCCCCCCCC)OC(=O)CC(C)CC(=O)OC(C)OC(=O)CC/C(C)=C/Cc1c(O)c2c(c(C)c1OC)COC2=O (stereo not shown) [Compound 11, (E)-1-(1,3-Bis(palmitoyloxy)propan-2-yl) 5-(1-((6-(4-hydroxy-6-methoxy-7-methyl-3-oxo-1,3-dihydroisobenzofuran-5-yl)-4-methylhex-4-enoyl)oxy)ethyl) 3-methylpentanedioate]
Release of MPA on incubation with LPL supplemented rat lymph (lipoprotein lipase (LPL)): very rapid

CCCCCCCCCCCCCCCC(=O)OCC(COC(=O)CCCCCCCCCCCCCCC)OC(=O)CCC(=O)OCO[C@H]1CC[C@H]2[C@@H]3CCC4=CC(=O)CC[C@]4(C)[C@H]3CC[C@]12C [Compound 12, 1,3-Bis(palmitoyloxy)propan-2-yl ((((8R,9S,10R,13S,14S,17S)-10,13-dimethyl-3-oxo-2,3,6,7,8,9,10,11,12,13,14,15,16,17-tetradecahydro-1H-cyclopenta[a]phenanthren-17-yl)oxy)methyl) succinate]
Stability of the monoglyceride form during in vitro incubation with porcine pancreatic lipase [3]: labile

CCCCCCCCCCC(=O)O[C@H]1CC[C@H]2[C@@H]3CCC4=CC(=O)CC[C@]4(C)[C@H]3CC[C@]12C [TU, testosterone undecanoate, reference compound]
Transport of total TST derivatives in lymph (% of dose) [1]: 1.9 ± 0.3 % of dose | Fold increase (compared with control group dosed with TU) [1]: 1.0 | AUC0-24 h fold increase compared with TU group ([2]; SD female rats): 1.0 | Tmax ([2]; SD female rats): 1.5 ± 0.0 h | AUC0-24 h ([2]; SD female rats): 0.0068 ± 0.0004 µM·h | Cmax [2]: 5.6 ± 0.5 nmol/L | Bioavailability of testosterone after oral administration of the undecanoate ester [4]: < 5%

C[C@]12CC[C@H]3[C@@H](CCC4=CC(=O)CC[C@@]43C)[C@@H]1CC[C@@H]2O [Testosterone, testosterone]
Transport of total TST derivatives in lymph (% of dose) [1]: Below LOQ*
